Source: ChEMBL document CHEMBL1146179, “Desosamine in multicomponent reactions” (Bioorg Med Chem Lett, 2006)
Calls of active or inactive are those of the source.

What was measured:
Assay type in all cases: functional, organism-based
Candida albicans [1] = assay: Antifungal activity against Candida albicans ATCC 10231 at 400 mM
Staphylococcus aureus [2] = assay: Antibacterial activity against Staphylococcus aureus ATCC 6538 at 50 mM
Staphylococcus aureus [3] = assay: Antibacterial activity against Staphylococcus aureus ATCC 6538 at 400 mM
Escherichia coli [4] = assay: Antibacterial activity against Escherichia coli at 50 mM
Staphylococcus aureus [5] = assay: Antibacterial activity against Staphylococcus aureus ATCC 6538 at 100 mM
Escherichia coli [6] = assay: Antibacterial activity against Escherichia coli at 100 mM
Bacillus subtilis [7] = assay: Antibacterial activity against Bacillus subtilis at 100 mM
Candida albicans [8] = assay: Antifungal activity against Candida albicans ATCC 10231 at 100 mM
Escherichia coli [9] = assay: Antibacterial activity against Escherichia coli at 400 mM
Candida albicans [10] = assay: Antifungal activity against Candida albicans ATCC 10231 at 50 mM
Bacillus subtilis [11] = assay: Antibacterial activity against Bacillus subtilis at 400 mM
Bacillus subtilis [12] = assay: Antibacterial activity against Bacillus subtilis at 50 mM

Measured: Activity

C[C@@H]1C[C@H](N(C)C)[C@@H](O)C(NCc2nnnn2C(C)(C)C)O1 (some centres undefined)
inactive: Candida albicans [1] | Staphylococcus aureus [2] | Staphylococcus aureus [3] | Escherichia coli [4] | Staphylococcus aureus [5] | Escherichia coli [6] | Bacillus subtilis [7] | Candida albicans [8] | Escherichia coli [9] | Candida albicans [10] | Bacillus subtilis [11] | Bacillus subtilis [12]

COC(=O)Cn1nnnc1C(NC1O[C@H](C)C[C@H](N(C)C)[C@H]1O)c1ccccc1 (some centres undefined)
inactive: Candida albicans [1] | Staphylococcus aureus [2] | Staphylococcus aureus [3] | Escherichia coli [4] | Staphylococcus aureus [5] | Escherichia coli [6] | Bacillus subtilis [7] | Candida albicans [8] | Escherichia coli [9] | Candida albicans [10] | Bacillus subtilis [11] | Bacillus subtilis [12]
